From PubChem BioAssay (NCI)
Several values for one entry are separate records, joined by “and”; a condition that tells them apart may be missing. Equal values may be shown once.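 In this assay, cells in 96-well plates receive the compound at five concentrations for 48 hours. Endpoints are linearly interpolated between the surrounding concentrations. The concentration for 50% growth inhibition is given as GI50. TGI: total growth inhibition.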

Assays:
Test in all cases: DTP human tumour cell line panel, 48 h
[1] = test system: SW-620 colon
[2] = test system: IGROV1 ovarian
[3] = test system: HCC-2998 colon
[4] = test system: K-562 leukemia
[5] = test system: NCI/ADR-RES ovarian
[6] = test system: ACHN renal
[7] = test system: RPMI-8226 leukemia
[8] = test system: OVCAR-8 ovarian
[9] = test system: SK-MEL-28 melanoma
[10] = test system: SF-539 CNS

Structure (SMILES)	GI50 [1]	TGI [1]	GI50 [2]	TGI [2]	GI50 [3]	TGI [3]	GI50 [4]	TGI [4]	GI50 [5]	TGI [5]	GI50 [6]	TGI [6]	GI50 [7]	TGI [7]	GI50 [8]	TGI [8]	GI50 [9]	TGI [9]	GI50 [10]	TGI [10]
COc1cccc2c1ccc1nc3cccc(C(=O)N[C@H](C)CN(C)C)c3nc12	0.039 µM	0.694 µM	0.0549 µM	11.9 µM	0.108 µM	0.298 µM	0.0474 µM	4.77 µM	0.0721 µM	0.554 µM	0.0426 µM	10.6 µM	0.0918 µM	0.647 µM	0.0528 µM	9.5 µM	0.221 µM	1.51 µM	0.157 µM	1.8 µM
Nc1nc(N)c2nc(CNc3ccc(C(=O)NC(CC(=O)O)C(=O)O)cc3)cnc2n1 (stereo not given)	0.274 µM	> 100 µM	0.631 µM	> 100 µM	1.07 µM	> 100 µM	0.0741 µM	> 100 µM	0.638 µM	> 100 µM	2.45 µM	> 100 µM	6.43 µM	> 100 µM	0.589 µM	> 100 µM	> 100 µM	> 100 µM	3.93 µM	> 100 µM
O=c1cc(-c2ccccc2F)[nH]c2ccc(N3CCCC3)cc12		> 100 µM	< 0.001 µM		0.0204 µM	0.455 µM and 0.0546 µM	< 0.001 µM	> 100 µM	< 0.001 µM			> 100 µM	< 0.001 µM		< 0.001 µM		82.3 µM	> 100 µM		0.0134 µM
Cc1ccc(C(CC(=O)c2ccccc2)C2C(=O)NC(=O)NC2=O)cc1 (stereo not given)	> 100 µM	> 100 µM	> 100 µM	> 100 µM	> 100 µM	> 100 µM	> 100 µM	> 100 µM	> 100 µM	> 100 µM	> 100 µM	> 100 µM	> 100 µM	> 100 µM	> 100 µM	> 100 µM	> 100 µM	> 100 µM	> 100 µM	> 100 µM
O=c1ccn(C2CC(O)C(CO)O2)c(=O)[nH]1 (stereo not given)	> 5000 µM	> 5000 µM	> 5000 µM	> 5000 µM	> 5000 µM	> 5000 µM	> 5000 µM	> 5000 µM	> 5000 µM	> 5000 µM	> 5000 µM	> 5000 µM	1190 µM	> 5000 µM	> 5000 µM	> 5000 µM	> 5000 µM	> 5000 µM	> 5000 µM	> 5000 µM
COc1cccc(-n2nc(C)c3c(N/N=C(\C)c4ccncc4)ncnc32)c1	> 25 µM	> 25 µM	> 25 µM	> 25 µM	> 25 µM	> 25 µM	> 25 µM	> 25 µM	> 25 µM	> 25 µM	> 25 µM	> 25 µM	> 25 µM	> 25 µM	> 25 µM	> 25 µM	> 25 µM	> 25 µM	22.8 µM	> 25 µM
CCOC(=O)c1cc2c(n1Cc1cccc(OC)c1)-c1oncc1CCC2	0.554 µM	> 100 µM	0.968 µM	> 100 µM	5.58 µM	> 96.4 µM	0.456 µM	> 100 µM	0.69 µM	> 21.7 µM	4.42 µM	> 100 µM	1.81 µM	> 43 µM	3.21 µM	> 100 µM	5.55 µM	> 100 µM	1.19 µM	4.68 µM
O=C(Cn1c(=O)c(-c2ccccc2)nc2ccccc21)Nc1ccc(F)cc1	67 µM	> 100 µM	89.6 µM	> 100 µM	> 100 µM	> 100 µM	35.8 µM	> 100 µM	> 100 µM	> 100 µM	42.6 µM	> 100 µM	37.4 µM	> 100 µM	39.6 µM	> 100 µM	> 100 µM	> 100 µM	4.03 µM	28.7 µM
c1cc2n(n1)CCN2		> 10000 µM		> 10000 µM		> 7040 µM		> 10000 µM		6590 µM		5330 µM		> 10000 µM		> 9400 µM		> 10000 µM		4990 µM
Cc1cc(O)c(C2=NN(c3ccc(S(N)(=O)=O)cc3)C(c3ccccc3Cl)C2)cc1Cl (stereo not given)			2.58 µM	14 µM	2.1 µM	3.91 µM	3.26 µM	> 100 µM	2.7 µM	6.85 µM	3.34 µM	11 µM	2.98 µM	8.35 µM	2.94 µM	11.2 µM	3.39 µM	12.3 µM	1.79 µM	3.25 µM
COC1=CC(c2ccc[nH]2)=N/C1=C\c1[nH]c(C)c(C(=O)CCCCC(=O)NC(C)(C)C)c1C	0.947 µM	2.26 µM	2.1 µM	4.59 µM	1.88 µM	6.09 µM	1.94 µM		1.61 µM	3.21 µM	1.7 µM	3.7 µM	0.237 µM	1.64 µM	2.25 µM	5.45 µM	1.59 µM	3.2 µM	3.27 µM	9.94 µM
O=C(O)c1cc2ccc3ccccc3c2oc1=O		> 100 µM		> 100 µM		> 100 µM		> 100 µM		> 100 µM		> 100 µM		> 100 µM		> 100 µM		> 100 µM		> 100 µM
COc1cccc(-c2nn(-c3ccccc3)cc2-c2ccnc(NCCCNC(=O)Nc3ccc(Cl)c(Cl)c3)c2)c1	3.02 µM	10.1 µM	4.24 µM	19.4 µM	2.17 µM	4.22 µM	2.38 µM	5.33 µM	2.19 µM	5.39 µM	4.23 µM	22.4 µM	2.13 µM	5.37 µM	3.22 µM	13.4 µM	1.93 µM	4.16 µM	2.25 µM	5.29 µM
